Laboratory results: the supplement of paper PMC10307832

What was measured:
Experiment in all cases: relative viability (nuclei count vs DMSO), 5 days (fraction); higher = more cells survive
BI-D1870 + Trametinib = compound: CC(C)CCN1c2nc(Nc3cc(F)c(O)c(F)c3)ncc2N(C)C(=O)C1C [BI-D1870] + CC(=O)Nc1cccc(-n2c(=O)n(C3CC3)c(=O)c3c(Nc4ccc(I)cc4F)n(C)c(=O)c(C)c32)c1 [Trametinib] (partner 0.02 µM)
In short: (§1)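 Values are medians from duplicate plates. Each reflects relative viability, defined as the nuclei count of treated wells over that of vehicle wells. Lung cancer cell lines in 1536-well plates were pin-tool dosed one day after seeding with one drug alone or with a fixed anchor-drug dose plus five library-drug doses (not always all listed) in √10 steps, then fixed, stained and imaged at 4× after 5 days.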

Zebularine + Navitoclax = compound: O=c1ncccn1[C@@H]1O[C@H](CO)[C@@H](O)[C@H]1O [Zebularine] + CC1(C)CCC(c2ccc(Cl)cc2)=C(CN2CCN(c3ccc(C(=O)NS(=O)(=O)c4ccc(N[C@H](CCN5CCOCC5)CSc5ccccc5)c(S(=O)(=O)C(F)(F)F)c4)cc3)CC2)C1 [Navitoclax] (partner 0.5 µM)
In short: as §1

Zebularine = compound: O=c1ncccn1[C@@H]1O[C@H](CO)[C@@H](O)[C@H]1O [Zebularine]
In short: (§2)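 Five library-drug doses, separated by factors of √10, were pinned into 1536-well plates holding lung cancer cell lines after an overnight stay at 37 °C. Cells were fixed, permeabilised and Hoechst-stained in one step after 5 days without medium change, then imaged at 4×. Viability compares treated-well with vehicle-well nuclei, counted in MetaXpress, as a median across plates. Passing plates had control CV below 25% and at least one doubling.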

BI-D1870 = compound: CC(C)CCN1c2nc(Nc3cc(F)c(O)c(F)c3)ncc2N(C)C(=O)C1C [BI-D1870]
In short: as §2

Cell Line	relative viability (BI-D1870 + Trametinib; first compound 0.04 µM)	relative viability (BI-D1870 + Trametinib; first compound 0.1265 µM)	relative viability (BI-D1870 + Trametinib; first compound 0.4 µM)	relative viability (BI-D1870 + Trametinib; first compound 1.265 µM)	relative viability (BI-D1870 + Trametinib; first compound 4 µM)	relative viability (Zebularine + Navitoclax; first compound 1 µM)	relative viability (Zebularine + Navitoclax; first compound 3.162 µM)	relative viability (Zebularine + Navitoclax; first compound 10 µM)	relative viability (Zebularine + Navitoclax; first compound 31.62 µM)	relative viability (Zebularine + Navitoclax; first compound 100 µM)	relative viability (Zebularine; 1 µM)	relative viability (Zebularine; 3.162 µM)	relative viability (Zebularine; 10 µM)	relative viability (Zebularine; 31.62 µM)	relative viability (Zebularine; 100 µM)	relative viability (BI-D1870; 0.04 µM)	relative viability (BI-D1870; 0.1265 µM)	relative viability (BI-D1870; 0.4 µM)	relative viability (BI-D1870; 1.265 µM)	relative viability (BI-D1870; 4 µM)
SK-LU-1	0.553	0.403	0.372	0.515	0.408	0.965	0.868	0.435	0.61	0.306	1.07	0.989	0.626	0.739	0.544	1.07	0.91	0.972	0.997	0.669
PC-3 [JPC-3]	0.751	0.701	0.632	0.762	0.576	0.751	0.749	0.603	0.748	0.583	1.07	1.01	0.711	0.868	0.76	1.05	1.02	0.962	1.1	0.951
EMC-BAC-2	1.05	0.852	0.89	1.13	1.09	1.35	1.15	0.683	1.28	1.3	1.07	0.994	0.775	0.981	1.06	1.1	1.01	0.891	1.01	0.904
NCI-H1299	–	–	–	–	–	1.05	1.07	0.782	1.06	0.526	1.02	0.97	0.858	1.06	0.454	1.05	1.01	1.04	1.04	0.863
LCLC-103H	0.692	0.616	0.653	0.7	0.63	–	–	–	–	–	0.959	0.987	0.867	1.04	0.842	1.03	0.967	0.94	1.06	0.838
ABC-1	–	–	–	–	–	–	–	–	–	–	0.922	0.724	0.687	0.641	0.494	0.949	0.887	0.92	1.01	0.761
NCI-H650	0.995	0.82	0.862	0.901	0.904	–	–	–	–	–	0.956	0.886	0.611	0.496	0.254	1.02	0.789	1.08	0.906	0.836
SW 900	0.883	0.83	0.858	0.762	0.984	–	–	–	–	–	1.04	0.839	0.661	0.843	0.651	1.03	0.95	0.864	1.02	0.894
NCI-H661	0.607	0.499	0.598	0.589	0.472	–	–	–	–	–	1.02	0.958	0.961	1.06	1.04	1.03	0.974	1	1	0.955
NCI-H1563	–	–	–	–	–	–	–	–	–	–	0.966	0.969	0.951	1.04	0.998	0.991	1.01	0.933	0.972	0.994
A549	–	–	–	–	–	1.24	1.12	–	0.913	0.206	1.08	0.913	0.519	0.75	0.155	1.06	0.908	0.975	1.04	0.848
NCI-H2342	0.794	0.805	0.881	1	1.01	–	–	–	–	–	1.01	0.953	0.757	0.984	0.853	0.983	0.919	1	1.09	1.15
NCI-H1623	–	–	–	–	–	–	–	–	–	–	0.923	0.895	0.86	0.894	0.531	0.945	0.895	1.19	1.16	0.911
NCI-H522	0.69	0.764	0.722	0.836	0.776	–	–	–	–	–	0.9	1.08	0.87	0.928	0.847	0.974	1.15	1.04	1.08	0.841
IA-LM	–	–	–	–	–	0.899	0.688	0.506	0.805	0.616	1.12	0.809	–	1.14	0.863	1.13	0.863	0.913	1.05	0.646
NCI-H358	0.147	0.117	0.136	0.153	0.119	–	–	–	–	–	0.884	0.951	0.596	0.491	0.346	1.07	0.834	0.803	0.916	0.775
EBC-1	–	–	–	–	–	0.398	0.353	0.376	0.337	0.37	1.1	0.811	0.842	1.11	0.974	0.995	0.889	0.839	0.654	0.361
